According to patent US20090093669A1, “MAGNETOPHORESIS APPARATUS AND METHOD OF USE” (priority 2007, published 2009):
Where two headings read alike, the source gives them in different places.

Key:
[1] = type: in vitro ADME, beef
Description: Each individual magnet had: • a residual induction value of at least 1,500 mT (magnetization of 1,200,000 amp/meter); • diameter of about 12.7 mm; and a • thickness of about 6.35 mm.
The magnets were arranged in an alternating polarity sequence on an iron flux ring (the iron flux ring is shaped like a washer). This positioning increased the field in the direction away from the flux ring. This arrangement is similar to the standard QuadraBloc® sold by Gradient Technologies, LLC. The magnetic field at the center of a North Pole of the magnets was about 530 mT. The array was placed over the drug such that the face of the magnets (away from the flux ring and towards the skin) covered the drug solution applied to the test material or skin. This configuration is described in U.S. applications Ser. No. 11/469,346 which is incorporated by reference herein.
The TENS unit used in the following experiments was set for 20 volts with a pulse rate of 100 Hz and a pulse width of 200 microseconds. Other usable settings will influence the results as the strength of the field is directly proportional to all of the variables and increasing any of the variables will drive the drug faster. The settings are important for treating underlying pain; however, when drugs are being applied at the same time as the TENS is being utilized to treat pain, it generally is not desirable to use the highest settings. […]
The test system used to determine the rates of dispersion in tissue was commercial homogenized beef tissue with various levels of lipids (fat) to cells compressed into 3 mm sheets. […] The beef tissue was purchased with selected levels of fat present in the samples as measured by the producer. […] The drug or formulation to be tested was placed on top of the tissue stack and then after a specified time the stack was separated and the individual 3 mm layers (bologna sheet/slice) were analyzed for the drug content. The drug migration was analyzed by extracting the tissue at the various depths with solvents and then quantifying the drug in that sample. […]

[2] = TENS electric field applied (20 volts, 100 Hz, 200 microseconds), fat free/low fat beef tissue
[3] = control test, no applied field, fat free/low fat (lean) beef tissue, unit not given
[4] = magnetic field applied, fat free/low fat beef tissue
[5] = quadrapolar magnetic field applied (530 mT at surface), fat free/low fat beef tissue

| Compound | diffusion coefficient Dx [2] | diffusion coefficient [3] | enhancement of diffusion coefficient, magnetic field versus control [4] | diffusion coefficient Dx [5] | enhancement of diffusion coefficient, TENS versus control (cattle) | enhancement of diffusion coefficient, magnetic field versus control (cattle) | further results |
| --- | --- | --- | --- | --- | --- | --- | --- |
| CCN(CC)CC(=O)Nc1c(C)cccc1C [lidocaine] | 0.12 mm^2/min | 0.027 | about 1.5 times | 0.04 mm^2/min | – | – | enhancement of diffusion coefficient, TENS versus control (TENS field applied, fat free/low fat beef tissue): 4.4 times; increase in diffusion coefficient, magnets versus control (magnets applied, low fat beef tissue): 48% |
| O=C(c1ccccc1)c1ccc2n1CCC2C(=O)O (stereo not drawn) [ketorolac] | – | – | – | – | 6-8 times | 4-5 times | – |
| CCCCN1CCCCC1C(=O)Nc1c(C)cccc1C (stereo not drawn) [bupivacaine] | – | – | – | – | 6-8 times | 4-5 times | – |
| insulin glargine | 0.008 mm^2/min | 0.002 | three and a half | 0.007 mm^2/min | – | – | – |
| COc1cc(CNC(=O)CCCC/C=C/C(C)C)ccc1O [capsaicin] | 0.30 mm^2/min | – | 4.5 times | 0.09 mm^2/min | 15 times | – | effect of TENS on the diffusion coefficient [1]: minimal effect; diffusion coefficient in lipid containing tissue versus lean tissue ([1]; cattle, 0.075 %): about 8 times; diffusion coefficient with magnets versus simple diffusion ([1]; cattle, 0.075 %): 3 times; depth of penetration (front) (TENS electric field, first 30 minutes, fat free tissue): 12 mm; time to totally penetrate the height of the stacks (TENS electric field, 15 mm stack, fat free tissue): 60 min; diffusion coefficient (cattle): 0.02; diffusion coefficient Dx (cattle, 0.075 %): 0.02 mm^2/min; depth of penetration (magnetic field, 30 minutes, fat free tissue): 7.5 mm; depth of penetration (magnetic field, end of 240 minutes, total tissue system, fat free tissue): 15 mm; rate of penetration, magnetic field versus control (magnetic field, fat free sample): doubled; depth of penetration (simple diffusion (control), 240 minutes, fat free tissue): 8 mm; depth of penetration (simple diffusion (control), after 30 minutes, fat free tissue): 4.5 mm |
